Data as given in article doi:10.64898/2026.05.07.723658, “Substrate-dependent crosslinking by the cytochrome P450 from aminopyruvatide biosynthesis” (bioRxiv, 2026).
Where a SMILES comes first, the peptide text is derived from it. The star is where a group is joined. For = O=C*

Legend:
[1] = tested on: cytochrome P450 ApyO
[2] = molecular target: T1, chymotrypsin (Bos taurus, UniProt P00766); type: biochemical
T1 construct: purchased Promega V1061

[3] = molecular target: T2, main protease from SARS-CoV-2 virus (Mpro) (Severe acute respiratory syndrome coronavirus 2, UniProt P0DTD1); type: biochemical
T2 construct: Cayman chemical) was used; purchased Cayman chemical 701960

[4] = molecular target: T3, trypsin (Sus scrofa, UniProt P00761); type: biochemical
T3 construct: purchased Promega V5111

[5] = molecular target: T4, angiotensin I-converting enzyme (ACE) (Oryctolagus cuniculus, UniProt P12822); assay: biochemical; conditions: 15 min preincubation at room temperature; substrate Abz-FRK(Dnp)-P-OH; 37 °C
T4 construct: purchased Sigma A6778
T4 sequence (P12822 34-1310): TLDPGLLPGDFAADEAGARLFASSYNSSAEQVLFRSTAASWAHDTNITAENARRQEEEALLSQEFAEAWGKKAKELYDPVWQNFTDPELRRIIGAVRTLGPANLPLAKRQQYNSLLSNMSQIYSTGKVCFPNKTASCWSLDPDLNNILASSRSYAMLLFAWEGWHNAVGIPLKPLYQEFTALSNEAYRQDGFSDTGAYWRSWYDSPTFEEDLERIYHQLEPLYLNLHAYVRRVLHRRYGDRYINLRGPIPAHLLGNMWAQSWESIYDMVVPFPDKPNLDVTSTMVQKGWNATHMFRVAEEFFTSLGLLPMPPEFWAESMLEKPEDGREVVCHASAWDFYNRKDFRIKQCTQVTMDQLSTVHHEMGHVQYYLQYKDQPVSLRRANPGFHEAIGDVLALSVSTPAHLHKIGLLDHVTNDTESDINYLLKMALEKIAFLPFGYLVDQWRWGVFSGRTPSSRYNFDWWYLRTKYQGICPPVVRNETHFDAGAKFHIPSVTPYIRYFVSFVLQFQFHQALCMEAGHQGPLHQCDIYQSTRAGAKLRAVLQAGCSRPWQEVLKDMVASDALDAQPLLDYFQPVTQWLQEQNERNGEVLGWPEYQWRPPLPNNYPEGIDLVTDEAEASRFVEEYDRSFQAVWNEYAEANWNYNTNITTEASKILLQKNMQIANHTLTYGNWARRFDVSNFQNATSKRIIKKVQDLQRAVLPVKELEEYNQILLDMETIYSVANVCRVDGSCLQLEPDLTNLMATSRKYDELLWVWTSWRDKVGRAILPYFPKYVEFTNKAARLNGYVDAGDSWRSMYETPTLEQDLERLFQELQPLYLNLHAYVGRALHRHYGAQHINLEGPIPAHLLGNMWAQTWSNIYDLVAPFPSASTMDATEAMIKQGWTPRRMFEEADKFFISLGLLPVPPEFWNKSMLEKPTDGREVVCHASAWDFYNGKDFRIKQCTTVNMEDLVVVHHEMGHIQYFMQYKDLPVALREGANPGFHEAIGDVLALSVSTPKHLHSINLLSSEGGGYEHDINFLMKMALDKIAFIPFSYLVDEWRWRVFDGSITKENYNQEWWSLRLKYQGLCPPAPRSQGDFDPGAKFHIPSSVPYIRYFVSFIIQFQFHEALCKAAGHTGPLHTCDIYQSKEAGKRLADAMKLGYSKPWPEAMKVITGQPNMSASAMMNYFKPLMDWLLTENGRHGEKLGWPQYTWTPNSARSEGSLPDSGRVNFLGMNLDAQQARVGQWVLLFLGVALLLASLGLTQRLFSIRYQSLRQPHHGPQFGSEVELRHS

T3 sequence (P00761 9-231): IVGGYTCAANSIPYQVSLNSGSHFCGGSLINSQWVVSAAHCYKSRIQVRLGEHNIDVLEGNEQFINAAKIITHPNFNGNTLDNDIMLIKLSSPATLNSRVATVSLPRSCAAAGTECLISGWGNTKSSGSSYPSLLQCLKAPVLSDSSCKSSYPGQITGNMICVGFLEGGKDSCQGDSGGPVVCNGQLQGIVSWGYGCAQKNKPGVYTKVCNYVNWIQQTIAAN

Structure (SMILES) | conversion by ApyO [1] | other results
CSCC[C@H](NC=O)C(=O)N[C@@H](CCCNC(=N)N)C(=O)N[C@@H](CCSC)C(=O)NCC(=O)N[C@@H](CCC(=O)O)C(=O)NCC(=O)N[C@@H](Cc1ccc(O)cc1)C(=O)NCC(=O)N[C@@H](Cc1ccc(O)cc1)C(=O)N[C@@H](CC(=O)O)C(=O)O [L7G] (For-MRMGEGYGYD-OH) | ~ 1% | 
CSCC[C@H](NC=O)C(=O)N[C@@H](CCCCN)C(=O)N[C@@H](CCSC)C(=O)NCC(=O)N[C@@H](CCC(=O)O)C(=O)NCC(=O)N[C@@H](Cc1ccc(O)cc1)C(=O)N[C@@H](CC(C)C)C(=O)N[C@@H](Cc1ccc(O)cc1)C(=O)N[C@@H](CC(=O)O)C(=O)O [R1K] (For-MKMGEGYLYD-OH) | ~ 8% | 
CSCC[C@H](NC=O)C(=O)N[C@@H](CCCNC(=N)N)C(=O)N[C@@H](CCSC)C(=O)NCC(=O)N[C@@H](CCC(=O)O)C(=O)NCC(=O)N[C@@H](Cc1ccc(O)cc1)C(=O)N[C@H](C(=O)N[C@@H](Cc1ccc(O)cc1)C(=O)N[C@@H](CC(=O)O)C(=O)O)[C@@H](C)O [L7T] (For-MRMGEGYTYD-OH) | ~ 3% | 
CC(C)C[C@@H]1NC(=O)[C@@H](NC(=O)CN)Cc2ccc(O)c(c2)-c2cc(ccc2O)C[C@@H](C(=O)N[C@@H](C)C(=O)C(=O)O)NC1=O [desmethylaminopyruvatide A] |  | inhibition of chymotrypsin [2]: No inhibition; inhibition of Mpro [3]: No inhibition; inhibition of trypsin [4]: No inhibition
CSCC[C@H](NC=O)C(=O)N[C@@H](CCCNC(=N)N)C(=O)N[C@@H](CCSC)C(=O)NCC(=O)N[C@@H](CCC(=O)O)C(=O)NCC(=O)N[C@@H](Cc1ccc(O)cc1)C(=O)N[C@@H](Cc1c[nH]c2ccccc12)C(=O)N[C@@H](Cc1ccc(O)cc1)C(=O)N[C@@H](CC(=O)O)C(=O)O [L7W] (For-MRMGEGYWYD-OH) | ~ 39% | 
CSCC[C@H](NC=O)C(=O)N[C@@H](CCCNC(=N)N)C(=O)N[C@@H](CCSC)C(=O)NCC(=O)N[C@@H](CCC(=O)O)C(=O)NCC(=O)N[C@@H](Cc1ccc(O)cc1)C(=O)N[C@@H](Cc1ccccc1)C(=O)N[C@@H](Cc1ccc(O)cc1)C(=O)N[C@@H](CC(=O)O)C(=O)O [L7F] (For-MRMGEGYFYD-OH) | ~ 8% | 
CSCC[C@H](NC=O)C(=O)N[C@@H](CCCNC(=N)N)C(=O)N[C@@H](CCSC)C(=O)NCC(=O)N[C@@H](CCC(=O)O)C(=O)NCC(=O)N[C@@H](Cc1ccc(O)cc1)C(=O)N[C@H](C(=O)N[C@@H](Cc1ccc(O)cc1)C(=O)N[C@@H](CC(=O)O)C(=O)O)C(C)C [L7V] (For-MRMGEGYVYD-OH) | ~ 57% | 
CSCC[C@H](NC=O)C(=O)N[C@@H](CCCNC(=N)N)C(=O)N[C@@H](CCSC)C(=O)NCC(=O)N[C@@H](CCC(=O)O)C(=O)NCC(=O)N[C@@H](Cc1ccc(O)cc1)C(=O)N[C@@H](CC(C)C)C(=O)N[C@@H](Cc1ccc(O)cc1)C(=O)N[C@@H](CC(=O)O)C(=O)O [ApyAct, MRMGEGYLYD] (For-MRMGEGYLYD-OH) | about 70% | 
CC[C@H](C)[C@H](NC(=O)[C@H](Cc1ccc(O)cc1)NC(=O)CNC(=O)[C@H](CCC(=O)O)NC(=O)CNC(=O)[C@H](CCSC)NC(=O)[C@H](CCCNC(=N)N)NC(=O)[C@H](CCSC)NC=O)C(=O)N[C@@H](Cc1ccc(O)cc1)C(=O)N[C@@H](CC(=O)O)C(=O)O [L7I] (For-MRMGEGYIYD-OH) | ~ 60% | 
CSCC[C@H](NC=O)C(=O)N[C@@H](CCCNC(=N)N)C(=O)N[C@@H](CCSC)C(=O)NCC(=O)N[C@@H](CCC(=O)O)C(=O)NCC(=O)N[C@@H](Cc1ccc(O)cc1)C(=O)N[C@@H](Cc1ccc(O)cc1)C(=O)N[C@@H](Cc1ccc(O)cc1)C(=O)N[C@@H](CC(=O)O)C(=O)O [L7Y] (For-MRMGEGYYYD-OH) | near quantitative | 
NCC(=O)N[C@H]1Cc2ccc(O)c(c2)Oc2ccc(cc2)C[C@@H](C(=O)N[C@@H](CC(=O)O)C(=O)O)NC(=O)[C@H](Cc2ccc(O)cc2)NC1=O (single isomer, unassigned) [L7Y isomer-2] |  | IC50 [5]: 1100 nM
